According to ChEMBL document CHEMBL3098118, “Access to a new class of biologically active quinoline based 1,2,4-triazoles” (2014):
In brackets after ≈: the same amount, converted by molar mass.

Legend:
Type in all cases: functional
Klebsiella pneumoniae = experiment: Antibacterial activity against Klebsiella pneumoniae MTCC 109 by agar streak dilution method
Pseudomonas aeruginosa = experiment: Antibacterial activity against Pseudomonas aeruginosa MTCC 741 by agar streak dilution method
Escherichia coli = experiment: Antibacterial activity against Escherichia coli MTCC 739 by agar streak dilution method
Bacillus cereus = experiment: Antibacterial activity against Bacillus cereus MTCC 619 by agar streak dilution method
Staphylococcus aureus = experiment: Antibacterial activity against Staphylococcus aureus MTCC 96 by agar streak dilution method
Candida albicans = experiment: Antifungal activity against Candida albicans MTCC 183 by agar streak dilution method
Aspergillus niger = experiment: Antifungal activity against Aspergillus niger MTCC 282 by agar streak dilution method

Compound	MIC (Klebsiella pneumoniae) [µg/mL]	MIC (Pseudomonas aeruginosa) [µg/mL]	MIC (Escherichia coli) [µg/mL]	MIC (Bacillus cereus) [µg/mL]	MIC (Staphylococcus aureus) [µg/mL]	MIC (Candida albicans) [µg/mL]	MIC (Aspergillus niger) [µg/mL]
CC1(C)S[C@@H]2[C@H](NC(=O)[C@H](N)c3ccccc3)C(=O)N2[C@H]1C(=O)O [AMPICILLIN]	25 (≈ 71.5 µM)	25 (≈ 71.5 µM)	6.25 (≈ 17.9 µM)	12.5 (≈ 35.8 µM)	12.5 (≈ 35.8 µM)		
O=C(CSc1nnc(-c2ccc3ncccc3c2)n1-c1cccc2ccccc12)Nc1nc2ccc([N+](=O)[O-])cc2s1	50 (≈ 84.8 µM)	50 (≈ 84.8 µM)	50 (≈ 84.8 µM)	62.5 (≈ 106 µM)	200 (≈ 339 µM)	50 (≈ 84.8 µM)	6.25 (≈ 10.6 µM)
Cc1ccc2nc(NC(=O)CSc3nnc(-c4ccc5ncccc5c4)n3-c3cccc4ccccc34)sc2c1	500 (≈ 895 µM)	100 (≈ 179 µM)	200 (≈ 358 µM)	250 (≈ 447 µM)	> 500	200 (≈ 358 µM)	50 (≈ 89.5 µM)
CC(=O)Nc1ccc2nc(NC(=O)CSc3nnc(-c4ccc5ncccc5c4)n3-c3cccc4ccccc34)sc2c1	250 (≈ 415 µM)	62.5 (≈ 104 µM)	200 (≈ 332 µM)	250 (≈ 415 µM)	500 (≈ 831 µM)	100 (≈ 166 µM)	62.5 (≈ 104 µM)
O=C(CSc1nnc(-c2ccc3ncccc3c2)n1-c1cccc2ccccc12)Nc1nc2ccc(F)cc2s1	62.5 (≈ 111 µM)	100 (≈ 178 µM)	100 (≈ 178 µM)	50 (≈ 88.9 µM)	25 (≈ 44.4 µM)	50 (≈ 88.9 µM)	25 (≈ 44.4 µM)
CCOc1ccc2nc(NC(=O)CSc3nnc(-c4ccc5ncccc5c4)n3-c3cccc4ccccc34)sc2c1	100 (≈ 170 µM)	25 (≈ 42.5 µM)	100 (≈ 170 µM)	100 (≈ 170 µM)	200 (≈ 340 µM)	6.25 (≈ 10.6 µM)	12.5 (≈ 21.2 µM)
O=C(CSc1nnc(-c2ccc3ncccc3c2)n1-c1cccc2ccccc12)Nc1nc2ccc(Br)cc2s1	100 (≈ 160 µM)	100 (≈ 160 µM)	62.5 (≈ 100 µM)	25 (≈ 40.1 µM)	50 (≈ 80.2 µM)	25 (≈ 40.1 µM)	50 (≈ 80.2 µM)
COc1ccc2nc(NC(=O)CSc3nnc(-c4ccc5ncccc5c4)n3-c3cccc4ccccc34)sc2c1	62.5 (≈ 109 µM)	50 (≈ 87 µM)	62.5 (≈ 109 µM)	100 (≈ 174 µM)	100 (≈ 174 µM)	25 (≈ 43.5 µM)	6.25 (≈ 10.9 µM)
OC(Cn1cncn1)(Cn1cncn1)c1ccc(F)cc1F [FLUCONAZOLE]						12.5 (≈ 40.8 µM)	6.25 (≈ 20.4 µM)
N#Cc1ccc2nc(NC(=O)CSc3nnc(-c4ccc5ncccc5c4)n3-c3cccc4ccccc34)sc2c1	50 (≈ 87.8 µM)	100 (≈ 176 µM)	50 (≈ 87.8 µM)	200 (≈ 351 µM)	500 (≈ 878 µM)	6.25 (≈ 11 µM)	100 (≈ 176 µM)
GENTAMICIN	25	12.5	12.5	6.25	6.25		
O=C(CSc1nnc(-c2ccc3ncccc3c2)n1-c1cccc2ccccc12)Nc1nc2ccc(Cl)cc2s1	62.5 (≈ 108 µM)	200 (≈ 345 µM)	100 (≈ 173 µM)	100 (≈ 173 µM)	200 (≈ 345 µM)	50 (≈ 86.3 µM)	100 (≈ 173 µM)
O=C(CSc1nnc(-c2ccc3ncccc3c2)n1-c1cccc2ccccc12)Nc1nc2ccc(I)cc2s1	100 (≈ 149 µM)	250 (≈ 373 µM)	250 (≈ 373 µM)	200 (≈ 298 µM)	250 (≈ 373 µM)	62.5 (≈ 93.2 µM)	62.5 (≈ 93.2 µM)
O=C(CSc1nnc(-c2ccc3ncccc3c2)n1-c1cccc2ccccc12)Nc1nc2ccccc2s1	500 (≈ 918 µM)	500 (≈ 918 µM)	250 (≈ 459 µM)	250 (≈ 459 µM)	500 (≈ 918 µM)	100 (≈ 184 µM)	200 (≈ 367 µM)
